# What was measured:
# Format in all cases: in vivo
# Design in all cases: key: 1=total damage; 9=no action
# [1] = system: Abutilon; assay: Post-emergence herbicidal action; conditions: 250 g a.i./ha (500 litres water/ha), sprayed at 4- to 6-leaf stage, evaluated after about 18 days; scale of nine ratings, 1 to 4 = good to very good action
# From the text: (§1) Post-Emergence Herbicidal Action
# (§2) Monocotyledonous and dicotyledonous test plants are raised in a greenhouse in plastic pots containing standard soil and at the 4- to 6-leaf stage are sprayed with an aqueous suspension of the test compounds of formula I (prepared from a 25% wettable powder (Example F3, b) according to WO 97/34485) or with an emulsion of the test compounds of formula I (prepared from a 25% emulsifiable concentrate (Example F1, c) according to WO 97/34485) at a rate of application corresponding to 250 g a.i./ha (500 litres water/ha). The test plants are then grown on in the greenhouse under optimum conditions. After a test duration of about 18 days, the test is evaluated in accordance with a scale of nine ratings (1=total damage, 9=no action). Ratings of from 1 to 4 (especially from 1 to 3) indicate good to very good herbicidal action.
# [2] = system: Amarantus; assay: Post-emergence herbicidal action; conditions: 250 g a.i./ha (500 litres water/ha), sprayed at 4- to 6-leaf stage, evaluated after about 18 days; scale of nine ratings, 1 to 4 = good to very good action
# From the text: as §1, §2
# [3] = system: Brachiaria; assay: Post-emergence herbicidal action; conditions: 250 g a.i./ha (500 litres water/ha), sprayed at 4- to 6-leaf stage, evaluated after about 18 days; scale of nine ratings, 1 to 4 = good to very good action
# From the text: as §1, §2
# [4] = system: Chenopodium; assay: Post-emergence herbicidal action; conditions: 250 g a.i./ha (500 litres water/ha), sprayed at 4- to 6-leaf stage, evaluated after about 18 days; scale of nine ratings, 1 to 4 = good to very good action
# From the text: as §1, §2
# [5] = system: Digitaria; assay: Post-emergence herbicidal action; conditions: 250 g a.i./ha (500 litres water/ha), sprayed at 4- to 6-leaf stage, evaluated after about 18 days; scale of nine ratings, 1 to 4 = good to very good action
# From the text: as §1, §2
# [6] = system: Panicum; assay: Post-emergence herbicidal action; conditions: 250 g a.i./ha (500 litres water/ha), sprayed at 4- to 6-leaf stage, evaluated after about 18 days; scale of nine ratings, 1 to 4 = good to very good action
# From the text: as §1, §2
# [7] = system: Setaria; assay: Post-emergence herbicidal action; conditions: 250 g a.i./ha (500 litres water/ha), sprayed at 4- to 6-leaf stage, evaluated after about 18 days; scale of nine ratings, 1 to 4 = good to very good action
# From the text: as §1, §2
# [8] = system: Stellaria; assay: Post-emergence herbicidal action; conditions: 250 g a.i./ha (500 litres water/ha), sprayed at 4- to 6-leaf stage, evaluated after about 18 days; scale of nine ratings, 1 to 4 = good to very good action
# From the text: as §1, §2
# [9] = system: Abutilon; assay: Pre-emergence herbicidal action; conditions: 250 g a.i./ha (500 litres water/ha), sprayed immediately after sowing, evaluated after 3 weeks; scale of nine ratings, 1 to 4 = good to very good action
# From the text: (§3) Herbicidal Action Prior to Emergence of the Plants (Pre-Emergence Action) Monocotyledonous and dicotyledonous test plants are sown in standard soil in plastic pots. Immediately after sowing, an aqueous suspension (prepared from a 25% wettable powder (Example F3, b) according to WO 97/34485) or an emulsion (prepared from a 25% emulsifiable concentrate (Example F1, c)) of the test compounds is applied by spraying at a rate of application corresponding to 250 […]). The test plants are then cultivated in a greenhouse under optimum conditions.
# [10] = system: Amarantus; assay: Pre-emergence herbicidal action; conditions: 250 g a.i./ha (500 litres water/ha), sprayed immediately after sowing, evaluated after 3 weeks; scale of nine ratings, 1 to 4 = good to very good action
# From the text: as §3
# [11] = system: Brachiaria; assay: Pre-emergence herbicidal action; conditions: 250 g a.i./ha (500 litres water/ha), sprayed immediately after sowing, evaluated after 3 weeks; scale of nine ratings, 1 to 4 = good to very good action
# From the text: as §3
# [12] = system: Chenopodium; assay: Pre-emergence herbicidal action; conditions: 250 g a.i./ha (500 litres water/ha), sprayed immediately after sowing, evaluated after 3 weeks; scale of nine ratings, 1 to 4 = good to very good action
# From the text: as §3
# [13] = system: Digitaria; assay: Pre-emergence herbicidal action; conditions: 250 g a.i./ha (500 litres water/ha), sprayed immediately after sowing, evaluated after 3 weeks; scale of nine ratings, 1 to 4 = good to very good action
# From the text: as §3
# [14] = system: Echinochloa; assay: Pre-emergence herbicidal action; conditions: 250 g a.i./ha (500 litres water/ha), sprayed immediately after sowing, evaluated after 3 weeks; scale of nine ratings, 1 to 4 = good to very good action
# From the text: as §3
# [15] = system: Euphoria; assay: Pre-emergence herbicidal action; conditions: 250 g a.i./ha (500 litres water/ha), sprayed immediately after sowing, evaluated after 3 weeks; scale of nine ratings, 1 to 4 = good to very good action
# From the text: as §3
# [16] = system: Panicum; assay: Pre-emergence herbicidal action; conditions: 250 g a.i./ha (500 litres water/ha), sprayed immediately after sowing, evaluated after 3 weeks; scale of nine ratings, 1 to 4 = good to very good action
# From the text: as §3
SMILES,"Post-emergence action, rating, Abutilon [1]","Post-emergence action, rating, Amarantus [2]","Post-emergence action, rating, Brachiaria [3]","Post-emergence action, rating, Chenopodium [4]","Post-emergence action, rating, Digitaria [5]","Post-emergence action, rating, Panicum [6]","Post-emergence action, rating, Setaria [7]","Post-emergence action, rating, Stellaria [8]","Pre-emergence action, rating, Abutilon [9]","Pre-emergence action, rating, Amarantus [10]","Pre-emergence action, rating, Brachiaria [11]","Pre-emergence action, rating, Chenopodium [12]","Pre-emergence action, rating, Digitaria [13]","Pre-emergence action, rating, Echinochloa [14]","Pre-emergence action, rating, Euphoria [15]","Pre-emergence action, rating, Panicum [16]"
"Cc1nc(C(F)(F)F)ccc1C(=O)C1=C(Cl)C(C)(C)C(=O)C(C)(C)C1=NS(C)(=O)=O [1.001, N-[3-chloro-4,4,6,6-tetramethyl-2-(2-methyl-6-trifluoromethyl-pyridine-3-carbonyl)-5-oxo-cyclohex-2-en-ylidene]-methanesulfonamide]",2,2,1,2,1,1,1,2,–,–,–,–,–,–,–,–
"Cc1nc(C(F)(F)F)ccc1C(=O)C1=C(Cl)C(C)(C)C(=O)C(C)(C)C1=NS(=O)(=O)c1cccnc1F [1.026, N-[3-chloro-5-oxo-4,4,6,6-tetramethyl-2-(2-methyl-6-trifluoromethyl-pyridine-3-carbonyl)-cyclohex-2-en-ylidene]-3-(2′-fluoropyridyl)sulfonamide]",1,1,2,1,1,1,1,2,1,1,1,1,1,1,2,1
Cc1nc(C(F)(F)F)ccc1C(=O)C1=C(Cl)C(C)(C)C(=O)C(C)(C)C1=NS(=O)(=O)c1ccccc1 [1.027],1,2,2,1,2,2,1,1,1,1,1,1,1,1,1,1
"C=CS(=O)(=O)N=C1C(C(=O)c2ccc(C(F)(F)F)nc2C)=C(Cl)C(C)(C)C(=O)C1(C)C [1.028, N-[3-chloro-3-oxo-4,4,6,6-tetramethyl-2-(2-methyl-6-trifluoromethyl-pyridine-3-carbonyl)-cyclohex-2-en-ylidene]-vinylsulfonamide]",1,2,2,1,1,1,1,1,1,1,1,1,3,1,2,1
"CSC1=C(C(=O)c2ccc(C(F)(F)F)nc2C)C(=NS(=O)(=O)c2cccnc2F)C(C)(C)C(=O)C1(C)C [1.078, N-[3-methylthio-5-oxo-4,4,6,6-tetramethyl-2-(2-methyl-6-trifluoromethyl-pyridine-3-carbonyl)-cyclohex-2-en-ylidene]-3-(2′-fluoropyridyl)sulfonamide]",1,2,3,1,1,1,2,3,1,1,2,1,1,1,2,1
CSC1=C(C(=O)c2ccc(C(F)(F)F)nc2C)C(=NS(=O)(=O)c2ccccc2)C(C)(C)C(=O)C1(C)C [1.079],2,2,2,1,2,2,2,1,1,1,1,1,1,1,2,1
